Experiment [1] deals with Streptococcus pneumoniae. In words: in vitro antibacterial activity (MIC), S. pneumoniae. In kind it is cell-based. The note with it: 50% Nutrient Broth + 5% human serum.
Experiment [2] has as its system Trichophyton quinekeanum. In words: Trichophyton quinekeanum induced skin infection in guinea pigs. In kind it is in vivo, male guinea pigs. The note with it: Table I; percentage drug concentration giving 50% of the score of untreated control; topical ointment. The method, then:
In the guinea pig skin infection test, Trichophyton quinekeanum was cultured on a YGP agar slant at 28° C. for 10 days. Spores were collected from the mycelial mat and suspended in Sabouraud broth containing 2% of Tween 80. Groups of 3 male guinea pigs weighing between 400-500 g were used for each dose of test compound. The flanks of the animals were depilated and injured with sandpaper. The injured area was inoculated and rubbed with a glass rod on day 0 with 0.2 ml of the spore suspension containing 10^8 CFU/ml. The test compound was combined with a 1:1 mixture of polyethylene glycol 400 and 4000, and 0.3 ml of the ointment was applied to the infected area on day 1, 3 and 5. Lesions were examined on day 7 and scored as follows: 0, normal; 1, erythema; 2, erythema with whitish area; 3, erythema and numerous whitish areas; 4, erythema with confluent scaling and whitish pateches. A compound showing a mean score of 1.5 or less was considered active.
In the following Table I the antifungal activity of the test compound is reported as the EC50 value, which is the percentage drug concentration giving 50% of the score of untreated control animals. The EC50 was calculated by the method of least squares (K. Brounlee: Statistical Theory and Methodology in Science and Engineering, pages 345-349, Wiley Press, New York, 1965). In Table II a more detailed comparison on the in vivo antifungal activities of compound 3a and the isomeric prior art compound 2 are shown together with the data for compound 3b.
Treatment: 5 applications (day 0 to 4) against candida vaginal infection
and 3 applications (day 1, 3 and 5) against trichophyton skin infection

The test system of experiment [3] is Candida albicans. In words: Candida albicans induced vaginal infection in mice. To be noted: Table I; percentage drug concentration giving 50% of the score of untreated control; intravaginal. In kind it is in vivo, female mice. The procedure:
A majority of the compounds of formula 3 were evaluated together with the prior art compound of formula 2 in a Candida albicans induced vaginal infection in mice and a Trichophyton quinekeanum induced skin infection in guinea pigs. Sabouraud broth was inoculated with Candida albicans and the inoculum incubated for two days at 28° C. on a rotary shaker. Groups of four to five female mice weighing between 18-21 grams were infected intravaginally with a 0.01 ml portion of the cell suspension containing 10^8 cells/ml on day 0. The mice were treated subcutaneously with 0.5 mg of estradiol benzoate three days before and four days after infection. The test compounds were suspended in 1% carboxymethyl cellulose and 0.02 ml of the suspension was instilled intravaginally from day 0 (four hours after infection) to day 4 (5 applications). On day 7, vaginal exudate was taken by a thin glass rod and streaked on a YGP agar plate containing 100 mcg/ml of chloramphenicol. The plate was incubated for two days at 28° C. […] In the following Table I the antifungal activity of the test compound is reported as the EC50 value, which is the percentage drug concentration giving 50% of the score of untreated control animals. The EC50 was calculated by the method of least squares (K. Brounlee: Statistical Theory and Methodology in Science and Engineering, pages 345-349, Wiley Press, New York, 1965). In Table II a more detailed comparison on the in vivo antifungal activities of compound 3a and the isomeric prior art compound 2 are shown together with the data for compound 3b.

Experiment [4] concerns S. faecalis. In words: in vitro antibacterial activity (MIC), S. faecalis. The format is cell-based, Streptococcus faecalis. The note with it: Enterococcus faecalis; Nutrient Broth.
Experiment [5] has as its system Streptococcus pyogenes. In words: in vitro antibacterial activity (MIC), S. pyogenes. In kind it is cell-based. The note with it: 50% Nutrient Broth + 5% human serum.
In experiment [6] the test system is Staphylococcus aureus. In words: in vitro antibacterial activity (MIC), S. aureus. To be noted: Nutrient Broth. In kind it is cell-based.

Molecules are shown by their SMILES. Counter-ions that a name gives are not always drawn.

As to `Cc1ccc(CSCSC(Cn2ccnc2)c2ccc(Cl)cc2Cl)cc1.O=C(O)/C=C/C(=O)O` (centres unmarked) [Compound 3c, 1-[2-(2,4-Dichlorophenyl)-2-(4-methylbenzylthiomethylthio)ethyl]-1H-imidazole hydrogen fumarate], the MIC – broadly, the lowest concentration that inhibits growth of the organism – is 63 µg/mL in experiment [1]; 2 µg/mL in experiment [4]; 63 µg/mL in experiment [5]; 0.5 µg/mL in experiment [6] (Strain A); greater than 63 µg/mL in experiment [6] (Strain B); 0.5 µg/mL in experiment [6] (Strain C). For the same molecule, the “EC50, Trichophyton Skin Infection” value in experiment [2] was 0.046%. The “EC50, Candida Vaginal Infection” value in experiment [3] came out at 0.0042%.

As for `Clc1ccc(CSCSC(Cn2ccnc2)c2ccc(Cl)cc2Cl)c(Cl)c1.O=C(O)/C=C/C(=O)O` (centres unmarked) [Compound 3d, 1-[2-(2,4-Dichlorobenzylthiomethylthio)-2-(2,4-dichlorophenyl)ethyl]-1H-imidazole hydrogen fumarate], the MIC in experiment [1] is 63 µg/mL; in experiment [4], greater than 63 µg/mL; in experiment [5], 63 µg/mL; in experiment [6] (Strain A), 0.25 µg/mL; in experiment [6] (Strain B), greater than 63 µg/mL; in experiment [6] (Strain C), 0.25 µg/mL. Moreover, the “EC50, Trichophyton Skin Infection” value in experiment [2] is given as 0.078%. In addition, the “EC50, Candida Vaginal Infection” value in experiment [3] is 0.060%.

For the molecule `Clc1ccc(C(Cn2ccnc2)SCSCc2c(Cl)cccc2Cl)c(Cl)c1` (centres unmarked) [Compound 3e, 1-[2-(2,6-Dichlorobenzylthiomethylthio)-2-(2,4-dichlorophenyl)ethyl]1-H-imidazole hydrochloride], the MIC is greater than 63 µg/mL in experiment [1]; 0.5 µg/mL in experiment [4]; greater than 63 µg/mL in experiment [5]; 0.25 µg/mL in experiment [6] (Strain A); greater than 63 µg/mL in experiment [6] (Strain B); 0.25 µg/mL in experiment [6] (Strain C). Moreover, the “EC50, Trichophyton Skin Infection” value in experiment [2] came out at 0.085%. For the same molecule, the “EC50, Candida Vaginal Infection” value in experiment [3] is reported as greater than 0.3%.

For the molecule `Clc1ccc(C(Cn2ccnc2)SCSCc2ccsc2Cl)c(Cl)c1.O=C(O)C(=O)O` (centres unmarked) [Compound 3h, 1-[2-(2-Chloro-3-thienylmethylthiomethylthio)2-(2,4-dichlorophenyl)ethyl]-1H-imidazole hydrogen oxalate], the MIC in experiment [1] was 63 µg/mL; in experiment [4], 2 µg/mL; in experiment [5], 32 µg/mL; in experiment [6] (Strain A), 0.5 µg/mL; in experiment [6] (Strain B) it was 16 µg/mL; in experiment [6] (Strain C), 0.5 µg/mL. The “EC50, Trichophyton Skin Infection” value in experiment [2] was determined as 0.047%. The “EC50, Candida Vaginal Infection” value in experiment [3] turned out to be 0.050%.
